Data taken from patent US20240148740A1, “COMBINATION OF AN AHR INHIBITOR WITH A PDX INHIBITOR OR DOXORUBICINE” (Ikena Oncology, Inc., priority 2020, published 2024).
Like-named read-outs stand apart in the source and are kept apart here.

Legend:
[1] = Phase 1 study, interim cohort pharmacokinetics; format: in vivo, human; details: for dose proportionality of PK: Cycle 2 Day 1 (C2D1); for exposure with increase in dose: interim cohort PK
Experimental: Serial blood samples are obtained to characterize the plasma PK of Compound A and its major active metabolites. The initial sampling strategy is based on the predicted human PK of this compound. If in the course of evaluating the PK, it is determined that an alternative sampling scheme would be more informative, then that alternative sampling scheme can be implemented if the total amount of blood and blood draws obtained for PK is not increased. Moreover, the total number of samples can be decreased at any time if the initial sampling scheme is considered unnecessarily intensive.

[2] = cited from earlier work
PD-1 pathway = details: cited from earlier work
[3] = system: CMV specific memory T cells; details: versus isotype-matched control, dose-dependent; cited from earlier work
NSCLC [4] = details: cited from earlier work
NSCLC [5] = details: cited from earlier work; remark: listed apart in the source
advanced NSCLC = details: cited from earlier work
[6] = system: PD-L1-positive, advanced NSCLC; details: cited from earlier work
advanced melanoma = details: median follow-up 9 months after completion of 2 years of pembrolizumab; cited from earlier work

## CC(C)(O)c1cnn2c(N[C@@H]3CCc4[nH]c5ccccc5c4C3)nc(-c3cncc(F)c3)nc12 [Compound B]
[1]; C2D1, 400 mg and 800 mg dose
  ratio of Compound B to Compound A: 1.3-1.4 x parent
[1]; C2D1, cohorts above 200 mg
  Compound B metabolite ratio: increased
[1]
  dose proportionality of PK: greater than dose proportional
  exposure with increase in dose: Increased exposure with increase in dose
[1]; above 200 mg
  accumulation with repeat dosing: Accumulation
[1]; repeated dosing, 2/3 subjects at 400 and 800 mg
  AUC relative to Compound A: greater than Compound A

## C=C(C)c1cnn2c(N[C@@H]3CCc4[nH]c5ccccc5c4C3)nc(-c3cncc(F)c3)nc12 [Compound C]
[1]; 400 mg and 800 mg dose
  ratio of Compound C to Compound A (AUC): 15-20 % of parent
[1]
  dose proportionality of PK: greater than dose proportional
  exposure with increase in dose: Increased exposure with increase in dose

## ipilimumab: drug combined with nivolumab; comparator in Keynote-006
[2]; nivolumab in combination with ipilimumab
  effect on the clearance of ipilimumab: no effect

## nivolumab: human monoclonal antibody (IgG4 kappa immunoglobulin) that blocks the interaction between PD-1 and its ligands
PD-1 pathway
  proliferation and IFN-γ release in the MLR: reproducible enhancement
[3]
  IFN-γ secretion from CMV specific memory T cells: augmented IFN-γ secretion
[2]; 3 mg/kg Q2W
  systemic accumulation: approximately 3 fold
  time to steady-state concentrations: ≤ 12 weeks
[2]; 0.1 to 10 mg/kg every 2 weeks
  exposure versus dose: increased dose proportionally
[2]; 0.1 to 10 mg/kg, single or multiple doses
  geometric mean clearance (CL): 9.5 mL/h
[2]; 0.1 to 10 mg/kg
  geometric mean elimination half-life (t½): 26.7 days
  geometric mean volume of distribution at steady state (Vss): 8.0 L
[2]; in combination with ipilimumab
  increase of CL of nivolumab: 24%
NSCLC [4]; among 16 NSCLC subjects who discontinued after 2 years of treatment
  subjects alive >5 years and progression-free without subsequent therapy: 12 subjects
NSCLC [4]; at 2 years
  OS rate: 25%
NSCLC [4]; at 3 years
  OS rate: 18%
NSCLC [5]; non-squamous NSCLC
  2 year OS rate: 29%
NSCLC [5]; squamous NSCLC
  2 year OS rate: 23%
NSCLC [5]; squamous and non-squamous NSCLC
  3 year OS rates: 16%-18%
Advanced NSCLC; median follow-up 14.9 months post-randomization
  OS HR, continued treatment: 0.63
Advanced NSCLC; post-randomization after 1 year of nivolumab
  PFS HR, continue versus stop treatment: 0.42
Advanced NSCLC; randomized to continue nivolumab
  median PFS (post-randomization): not reached
Advanced NSCLC; randomized to stop treatment
  median PFS (post-randomization): 10.3 months

## pembrolizumab
[6]; 47 patients who completed 2 years
  patients with confirmed progression after stopping at 2 years: 4%
[6]; pembrolizumab 2 mg/kg every 3 weeks
  OS hazard ratio (HR) compared to docetaxel: 0.72
[6]; pembrolizumab 10 mg/kg every 3 weeks
  OS hazard ratio (HR) compared to docetaxel: 0.60
Advanced melanoma
  estimated risk of progression or death: 9%
